In patent publication US11873298B2, “Compounds and uses thereof” (JANSSEN PHARMACEUTICA NV, priority 2017, dated 2024):

Legend:
SCD1 = biological target: T1, SCD1 (Homo sapiens, UniProt O00767); assay: Growth inhibition of humanized yeast strain expressing SCD1 as sole desaturase; assay type: cell-based
T1 construct: host or cells: S. cerevisiae ole1Δ strain (W303 pdr1Δ pdr3Δ background), plasmid pRS316 with TDH3 promoter and CYC1 terminator
T1 sequence (O00767 1-359): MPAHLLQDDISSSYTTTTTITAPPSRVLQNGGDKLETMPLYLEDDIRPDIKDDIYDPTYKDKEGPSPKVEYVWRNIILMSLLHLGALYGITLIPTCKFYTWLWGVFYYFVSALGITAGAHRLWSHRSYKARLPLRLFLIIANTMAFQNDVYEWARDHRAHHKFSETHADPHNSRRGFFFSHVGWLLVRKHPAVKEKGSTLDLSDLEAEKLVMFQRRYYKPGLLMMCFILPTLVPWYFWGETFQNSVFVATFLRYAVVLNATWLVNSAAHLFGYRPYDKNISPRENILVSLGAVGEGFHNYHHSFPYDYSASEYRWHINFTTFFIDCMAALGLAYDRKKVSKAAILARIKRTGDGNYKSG
Method: Strain oleΔ (yeast ole1 deletion mutant) was constructed by deleting OLE1 with NAT-MX6 in BY4741, amplifying the deletion cassette from the genomic DNA of the resulting strain with primers flanking the ORF by 1000 bp upstream and downstream, transforming the resulting deletion cassette into W303 pdr1Δ pdr3Δ, and plating transformants on YPD media containing G418 (200 μg/mL) and nourseothricin ([…]) with 0.01% TWEEN®-20 and 0.5 mM oleic and palmitoleic acids.
The coding sequence of yeast OLE1 was also cloned into this plasmid). These clones were then transformed into the ole1Δ strain and plated on CSM-Ura media (CSM lacking uracil) with 2% glucose (w/v) and independent colonies were isolated and amplified.
All compound profiling experiments were performed using the same basic protocol. Different genetic backgrounds (e.g., gene deletions) or conditions (e.g., addition of oleic and palmitoleic acid) were replaced as indicated below.
Yeast were cultured using standard techniques in complete synthetic media (CSM) and yeast nitrogen base supplemented with 2% (w/v) carbon source (glucose, raffinose, or galactose) to regulate the expression of the toxic disease protein. An initial starter culture was inoculated in 3 mL CSM-Glucose media and incubated overnight in a 30° C. shaker incubator (225 rpm). Saturated morning cultures were then diluted 1:20 in fresh CSM-Raffinose media and grown for 6 h to an OD600 (optical density) of ˜0.4-0.8 at 30° C. with shaking.
Compound administration was performed in two separate steps. First, 15 μL of CSM-Galactose (induces expression of toxic protein) was dispensed into clear 384 well assay plates using a MULTIDROP™ Combi reagent dispenser. […] The cultures described above were then diluted to a 2× concentration (0.03 and 0.08 for alpha-synuclein and ApoE, final ODsoo of 0.015 and 0.04) in CSM-Galactose. For wild-type and Ole1/SCD1/SCD5 plasmid-containing strains, the 2× cell density was 0.02. […] For 96-well assays (FIGS. 1A and 1B), compound dilutions in DMSO were generated in 96 well plates and 1 μL was manually pipetted into 96 well clear bottom assay plates.
For experiments using a plasmid-borne copy of Ole1, SCD1, or SCD5 (FIGS. 3B, 6, and 7), media lacking uracil (SX-Ura, where X is glucose, raffinose, or galactose), was used for all steps of the compound profiling protocol to ensure its maintenance throughout the assay.
After yeast delivery, assay plates were incubated under humidified conditions at 30° C. for 24 to 40 h. ApoE4 rescue experiments were stopped at 24 h, aSyn experiments at 40 h, Ole1 at 24 h, and SCD1/SCD5 at 40 h. The growth of yeast was monitored by reading the ODsoo of each well using a microplate reader (Perkin Elmer EnVision™).

SCD5 = biological target: T2, SCD5 (Homo sapiens, UniProt Q86SK9); assay: Growth inhibition of humanized yeast strain expressing SCD5 as sole desaturase; assay type: cell-based
T2 construct: host or cells: S. cerevisiae ole1Δ strain (W303 pdr1Δ pdr3Δ background), plasmid pRS316 with TDH3 promoter and CYC1 terminator
T2 sequence (Q86SK9 1-330): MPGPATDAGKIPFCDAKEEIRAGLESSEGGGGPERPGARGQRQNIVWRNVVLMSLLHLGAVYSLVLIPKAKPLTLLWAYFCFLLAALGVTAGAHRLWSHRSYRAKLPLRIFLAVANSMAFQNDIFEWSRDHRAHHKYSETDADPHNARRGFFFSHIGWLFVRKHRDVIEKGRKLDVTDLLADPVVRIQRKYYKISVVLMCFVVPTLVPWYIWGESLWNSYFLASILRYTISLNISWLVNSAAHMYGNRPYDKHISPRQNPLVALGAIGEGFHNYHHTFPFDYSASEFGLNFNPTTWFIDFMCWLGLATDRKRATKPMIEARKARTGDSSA
Summary of the method: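 Plasmid-complemented ole1Δ yeast, drug-pump deleted (pdr1Δ pdr3Δ), depend solely on the introduced Ole1, SCD1 or SCD5 desaturase. Compounds are added from DMSO to cells in uracil-free galactose medium, 2× density 0.02, and OD600 is read after 24 h or 40 h respectively.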

[1] = humanized yeast strain expressing SCD1
[2] = humanized yeast strain expressing SCD5
[3] = growth inhibition of humanized yeast strain expressing human SCD1
[4] = growth inhibition of humanized yeast strain expressing human SCD5

| SMILES | IC50 (SCD1; [1]) | IC50 (SCD5; [2]) | IC50 (SCD1; [3]) | IC50 (SCD5; [4]) |
| --- | --- | --- | --- | --- |
| C=C(C)c1ccc(C(=O)N2CCC(c3nc(-c4ccc5cnn(C)c5c4)no3)CC2)nc1 [Compound 501] | 12.2 µM | 21.3 µM |  |  |
| Cc1nn(C)c2cc(-c3noc(C4CCN(C(=O)OC(C)(C)C)CC4(F)F)n3)ccc12 (centres unmarked) [Compound 504] | > 45 µM | 14.8 µM |  |  |
| CC(C)n1ncc2ccc(-c3noc(C4CCNCC4(F)F)n3)cc21 (centres unmarked) [Compound 508] | > 45 µM | > 45 µM |  |  |
| CC(C)n1ncc2ccc(-c3noc(C4CCN(C(=O)OC(C)(C)C)C=C4F)n3)cc21 (centres unmarked) [Compound 509] | > 45 µM | > 45 µM |  |  |
| Cc1nn(C)c2cc(-c3noc(C4CCN(C(=O)CN)CC4(F)F)n3)ccc12 (centres unmarked) [Compound 512] | > 45 µM | > 45 µM |  |  |
| CC(C)n1ncc2ccc(-c3noc(N4C[C@@H]5CN(C(=O)OC(C)(C)C)C[C@H]5C4)n3)cc21 [Compound 513] | > 45 µM | > 45 µM |  |  |
| Cc1nn(C)c2cc(-c3noc(C4CCN(c5nc6ccccc6o5)CC4)n3)ccc12 [Compound 514] | > 45 µM | > 45 µM |  |  |
| CC(C)n1ncc2ccc(N3CC4(CCN(C(=O)OC(C)(C)C)CC4)OC3=O)cc21 [Compound 515] | 16.5 µM | > 45 µM |  |  |
| CC(C)n1ncc2ccc(-c3noc(C4CCN(S(=O)(=O)C5CCCCC5)CC4)n3)cc21 [Compound 516] | > 45 µM | > 45 µM |  |  |
| COC1CCC(S(=O)(=O)N2CCC(c3nc(-c4ccc5cnn(C(C)C)c5c4)no3)CC2)CC1 (centres unmarked) [Compound 517] | > 45 µM | > 45 µM |  |  |
| Cc1nn(C)c2cc(-c3noc(C4CCN(C(=O)CCC(F)(F)F)CC4)n3)ccc12 [Compound 518] | > 45 µM | 2.95 µM |  |  |
| CC(C)n1ncc2ccc(-c3noc(C4CCN(C(=O)CNC(=O)c5ccccc5)CC4(F)F)n3)cc21 (centres unmarked) [Compound 519] | > 45 µM | > 45 µM |  |  |
| CC(C)n1ncc2ccc(-c3noc(C4CCN(C(=O)CNC(=O)c5ccc(F)cc5)CC4(F)F)n3)cc21 (centres unmarked) [Compound 520] | > 45 µM | > 45 µM |  |  |
| CC(C)n1ncc2ccc(-c3noc(C4CCN(C(=O)CNC(=O)c5ccc(Cl)cc5)CC4(F)F)n3)cc21 (centres unmarked) [Compound 521] | > 45 µM | 8.79 µM |  |  |
| CC(C)n1ncc2ccc(-c3noc(C4CCN(C(=O)CNC(=O)c5cccc(Cl)c5)CC4(F)F)n3)cc21 (centres unmarked) [Compound 522] | > 45 µM | > 45 µM |  |  |
| CC(C)n1ncc2ccc(-c3noc(C4CCN(C(=O)CNC(=O)c5cccc(C#N)c5)CC4(F)F)n3)cc21 (centres unmarked) [Compound 523] | > 45 µM | > 45 µM |  |  |
| CC(C)n1ncc2ccc(-c3nc(C4CCN(C(=O)OC(C)(C)C)C4)no3)cc21 (centres unmarked) [Compound 524] | > 45 µM | 2.5 µM |  |  |
| CC(C)n1ncc2ccc(-c3noc(C4CCN(C(=O)CNC(=O)OC(C)(C)C)CC4(F)F)n3)cc21 (centres unmarked) [Compound 525] | > 45 µM | > 45 µM |  |  |
| Cc1nn(C)c2cc(-c3noc([C@H]4CC[C@H](O)CC4)n3)ccc12 [Compound 526] | > 45 µM | > 45 µM |  |  |
| Cc1nn(C)c2cc(-c3noc(C4CCN(C(=O)CNC(=O)OC(C)(C)C)CC4(F)F)n3)ccc12 (centres unmarked) [Compound 527] | 0.958 µM | 1.46 µM |  |  |
| CC(C)n1ncc2ccc(-c3nc(C4CCNC4)no3)cc21 (centres unmarked) [Compound 531] | > 45 µM | > 45 µM |  |  |
| CC(C)n1ncc2ccc(-c3nc(C4CCN(C(=O)CC(C)(C)C)C4)no3)cc21 (centres unmarked) [Compound 542] | > 45 µM | 7.33 µM |  |  |

| SMILES | IC50 (SCD1; [1]) | IC50 (SCD5; [2]) | IC50 (SCD1; [3]) | IC50 (SCD5; [4]) |
| --- | --- | --- | --- | --- |
| CC(C)n1ncc2ccc(-c3noc(N4CCN(C(=O)c5cccc(F)c5)CC4)n3)cc21 [Compound 547] | > 45 µM | 44.3 µM |  |  |
| CC(C)n1ncc2ccc(-c3noc(C4CCN(C(=O)CNC(=O)c5cccc(F)c5)CC4(F)F)n3)cc21 (centres unmarked) [Compound 551] | > 45 µM | > 45 µM |  |  |
| CC(C)n1ncc2ccc(-c3noc(C4CCN(C(=O)CNC(=O)c5ccc(C#N)cc5)CC4(F)F)n3)cc21 (centres unmarked) [Compound 552] | > 45 µM | > 45 µM |  |  |
| Cc1nn(C)c2cc(-c3noc(C4CCN(C(=O)CNC(=O)c5ccc(Cl)cn5)CC4(F)F)n3)ccc12 (centres unmarked) [Compound 553] | 5.71 µM | 0.885 µM |  |  |
| Cc1nn(C)c2cc(-c3noc(C4CCN(C(=O)CNC(=O)c5ccc(Cl)cc5)CC4(F)F)n3)ccc12 (centres unmarked) [Compound 554] | 4.08 µM | 1.07 µM |  |  |
| Cc1nn(C)c2cc(-c3noc(C4CCN(C(=O)CNC(=O)c5ccc(F)cc5)CC4(F)F)n3)ccc12 (centres unmarked) [Compound 557] | > 45 µM | 6.03 µM |  |  |
| CC(C)n1ncc2ccc(-c3noc(C4CCCN(C(=O)OC(C)(C)C)C4)n3)cc21 (centres unmarked) [Compound 563] | > 45 µM | > 45 µM |  |  |
| Cc1nn(C)c2cc(-c3noc(C4CCN(CC5COC(=O)C5)CC4)n3)ccc12 (centres unmarked) [Compound 567] | > 45 µM | > 45 µM |  |  |
| Cc1nn(C)c2cc(-c3noc([C@H]4CCN(C(=O)CNC(=O)c5ccccc5)CC4(F)F)n3)ccc12 [Compound 578] | 8.46 µM | 1.49 µM |  |  |
| CC(C)n1ncc2ccc(-c3noc(C4CCN(C(=O)CNC(=O)C5CC5)CC4(F)F)n3)cc21 (centres unmarked) [Compound 579] | > 45 µM | > 45 µM |  |  |
| CC(C)n1ncc2ccc(-c3nc(N4CCN(C(=O)c5ccccc5Cl)CC4)no3)cc21 [Compound 580] | 14.1 µM | 0.022 µM |  |  |
| CC(CF)n1ncc2ccc(-c3noc(C4CCN(C(=O)CC(C)(C)C)CC4)n3)cc21 (centres unmarked) [Compound 583] | > 45 µM | 0.989 µM |  |  |
| CC(C)n1ncc2ccc(-c3noc(C4CCN(C(=O)OC5(C)CC5)CC4(F)F)n3)cc21 (centres unmarked) [Compound 584] | > 45 µM | 5.34 µM |  |  |
| CC(CF)n1ncc2ccc(-c3noc(C4CCN(C(=O)CC5(C)CC5)CC4)n3)cc21 (centres unmarked) [Compound 585] | > 45 µM | 1.81 µM |  |  |
| Cc1nn(C)c2cc(-c3noc(C4CCN(C(=O)CNC(=O)c5ccc(C#N)cc5)CC4(F)F)n3)ccc12 (centres unmarked) [Compound 601] | > 45 µM | 5.69 µM |  |  |
| Cc1nn(C)c2cc(-c3noc(C4CCN(C(=O)CNC(=O)c5cccc(F)c5)CC4(F)F)n3)ccc12 (centres unmarked) [Compound 602] | 15.9 µM | 2.74 µM |  |  |
| Cc1nn(C)c2cc(-c3noc(C4CCN(C(=O)CNC(=O)c5cccc(Cl)c5)CC4(F)F)n3)ccc12 (centres unmarked) [Compound 603] | 7.26 µM | 2.41 µM |  |  |
| Cc1nn(C)c2cc(-c3noc(C4CCN(C(=O)CNC(=O)c5cccc(C#N)c5)CC4(F)F)n3)ccc12 (centres unmarked) [Compound 604] | > 45 µM | 6.12 µM |  |  |
| CC(C)n1ncc2ccc(-c3nc(C4CN(C(=O)OC(C)(C)C)C4)no3)cc21 [Compound 605] | 31.8 µM | 0.513 µM |  |  |
| CC(C)n1ncc2ccc(-c3nc(C4CN(C(=O)CC(C)(C)C)C4)no3)cc21 [Compound 606] |  |  | > 45 µM | 0.737 µM |
| CC(CF)n1ncc2ccc(-c3noc(C4CCN(C(=O)OC5(C)CC5)CC4)n3)cc21 (centres unmarked) [Compound 607] |  |  | > 45 µM | 0.511 µM |
